Measurements published in patent publication US20040219208A1, “Sustained-release medicines” (priority 2001, published 2004).

Assay: Drug concentration in plasma of rat after subcutaneous administration of microcapsule
Assay type: in vivo
Conditions: sc, 25 mg microcapsule of Example 1, subcutaneous at rear neck, 9 week old male SD rat, plasma from tail vein, n = 4; for concentration at 1 week: after 1 week; for concentration at 2 weeks: after 2 weeks; for concentration at 3 weeks: after 3 weeks; for concentration at 1 day: after 1 day
Experimental: 25 mg of the microcapsule obtained in Example 1 was dispersed in 0.1 mL of dispersing medium (a solution in which 5 mg of sodium carboxymethylcellulose, 1 mg of Polysorbate 80 and 50 mg of mannitol were dissolved in 1 mL of distilled water), and this was subcutaneously administered to a 9 week old male SD rat with 23G injection needle at a rear neck part. The concentrations of drugs in plasma obtained by taking from a tail vein with time after administration were measured.

Row | concentration at 1 week [ng/mL] | concentration at 2 weeks [ng/mL] | concentration at 3 weeks [ng/mL] | concentration at 1 day [ng/mL] | Compound
1 | 238 | 94 | 4 | 170 | CCOc1nc2cccc(C(=O)O)c2n1Cc1ccc(-c2ccccc2-c2nnn[nH]2)cc1 [Compound B, 2-ethoxy-1-[[2′-(1H-tetrazol-5-yl)biphenyl-4-yl]methyl]benzimidazole-7-carboxylic acid]
2 | 226 | 155 | 30 | 313 | CCc1ccc(CCOc2ccc(CC3SC(=O)NC3=O)cc2)nc1 (centres unmarked) [actos]
